Reference: the supplement of paper PMC6045584
± gives the standard deviation of the averaged measurements.

Assays:
[1] = compound: C[C@@H](Oc1cc(-c2cnn(C3CCNCC3)c2)cnc1N)c1c(Cl)ccc(F)c1Cl [CRIZOTINIB]; experiment: surviving fraction relative to DMSO-only wells; higher = less growth inhibition; details: exposure time: 5 days
In short: (§1)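 Log-phase tumour cell lines were seeded at 250–500 cells per well in 384-well plates. After 24 hours they were exposed continuously for five days to inhibitors at 0.5, 1, 5, 10, 50, 100, 500 and 1000 nM. Viability was read by CellTiter-Glo luminescence after 10 minutes at room temperature, and surviving fraction is luminescence normalised to the median of DMSO-only wells. Each line was screened three times and kept only if replicate Pearson r >0.7 and median Z' >0.3.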

[2] = compound: C[C@]12CC[C@H](O)CC1=CC[C@@H]1[C@@H]2CC[C@]2(C)C(c3cccnc3)=CC[C@@H]12 [ABIRATERONE]; experiment: as above; details: exposure time: 5 days
In short: as §1

| Test System | surviving fraction ([1]; 0.5 nM) | surviving fraction ([1]; 1 nM) | surviving fraction ([1]; 5 nM) | surviving fraction ([1]; 10 nM) | surviving fraction ([1]; 50 nM) | surviving fraction ([1]; 100 nM) | surviving fraction ([1]; 500 nM) | surviving fraction ([1]; 1000 nM) | surviving fraction ([2]; 0.5 nM) | surviving fraction ([2]; 1 nM) | surviving fraction ([2]; 5 nM) | surviving fraction ([2]; 10 nM) | surviving fraction ([2]; 50 nM) | surviving fraction ([2]; 100 nM) | surviving fraction ([2]; 500 nM) | surviving fraction ([2]; 1000 nM) |
| --- | --- | --- | --- | --- | --- | --- | --- | --- | --- | --- | --- | --- | --- | --- | --- | --- |
| SUM149.B1*.S BREAST | 1.12 ± 0.043 | 1.19 ± 0.041 | 1.15 ± 0.052 | 1.14 ± 0.067 | 1.13 ± 0.058 | 1.18 ± 0.059 | 1.11 ± 0.029 | 1.03 ± 0.047 | 1.11 ± 0.055 | 1.11 ± 0.047 | 1.2 ± 0.05 | 1.12 ± 0.071 | 1.21 ± 0.062 | 1.21 ± 0.074 | 1.19 ± 0.028 | 1.2 ± 0.078 |
| SUM159 BREAST | 1.11 ± 0.03 | 1.12 ± 0.056 | 1.12 ± 0.039 | 1.11 ± 0.022 | 1.09 ± 0.011 | 1.103 ± 0.004 | 1.11 ± 0.013 | – | 1.11 ± 0.053 | 0.994 ± 0.16 | 0.99 ± 0.17 | 0.952 ± 0.21 | 1.11 ± 0.05 | 0.963 ± 0.24 | 1.03 ± 0.15 | 0.961 ± 0.2 |
| SYO1 SYNOVIAL | 0.967 ± 0.015 | 1.03 ± 0.029 | 0.953 ± 0.094 | 1 ± 0.028 | 0.978 ± 0.042 | 0.891 ± 0.018 | 0.399 ± 0.03 | 0.169 ± 0.008 | 1.01 ± 0.048 | 1.03 ± 0.02 | 1.03 ± 0.014 | 1.01 ± 0.013 | 1.031 ± 0.0036 | 1.03 ± 0.029 | 1.01 ± 0.018 | 1.01 ± 0.062 |
| T47D BREAST | 1.07 ± 0.024 | 1.08 ± 0.079 | 1.1 ± 0.043 | 1.08 ± 0.03 | 1.07 ± 0.045 | 1.099 ± 0.0093 | 1.03 ± 0.038 | 0.93 ± 0.041 | 1.04 ± 0.048 | 1.08 ± 0.031 | 1.05 ± 0.018 | 1.08 ± 0.063 | 1.18 ± 0.068 | 1.14 ± 0.022 | 1.1 ± 0.069 | 1.13 ± 0.051 |
| U2OS BONE | 1.02 ± 0.026 | 1.05 ± 0.033 | 1.03 ± 0.042 | 1.05 ± 0.029 | – | 1.05 ± 0.013 | 0.539 ± 0.023 | 0.459 ± 0.033 | 1.04 ± 0.05 | 1.03 ± 0.029 | 1.1 ± 0.035 | 1.096 ± 0.004 | 1.19 ± 0.031 | 1.08 ± 0.022 | 1.1 ± 0.016 | 1.09 ± 0.032 |
| VCAP PROSTATE | 1.09 ± 0.13 | 0.987 ± 0.1 | 1.13 ± 0.2 | 1.09 ± 0.02 | 1.02 ± 0.15 | – | 0.504 ± 0.013 | 0.36 ± 0.04 | 1.13 ± 0.024 | 1.07 ± 0.083 | 1.19 ± 0.049 | 1.12 ± 0.073 | 1.22 ± 0.1 | 1.18 ± 0.18 | 1.02 ± 0.1 | 0.967 ± 0.11 |
| VP229 BREAST | – | 1.23 ± 0.082 | 1.06 ± 0.018 | 1.23 ± 0.059 | 1.14 ± 0.048 | 1.15 ± 0.14 | 1.03 ± 0.15 | 0.686 ± 0.14 | 1.03 ± 0.052 | 0.99 ± 0.032 | 0.997 ± 0.1 | 1.09 ± 0.1 | 1.03 ± 0.013 | 1.04 ± 0.03 | 1.26 ± 0.16 | 1.11 ± 0.16 |
| YAMATO SYNOVIAL | 1.13 ± 0.056 | 1.1 ± 0.15 | 1.2 ± 0.14 | 1.1 ± 0.1 | 0.563 ± 0.036 | 0.324 ± 0.031 | 0.221 ± 0.021 | 0.269 ± 0.021 | 1.37 ± 0.033 | 1.52 ± 0.058 | 1.48 ± 0.12 | 1.45 ± 0.14 | 1.39 ± 0.14 | 1.46 ± 0.078 | 1.38 ± 0.025 | 1.22 ± 0.14 |
| ZR751 BREAST | – | 1.07 ± 0.14 | 0.926 ± 0.024 | – | 1.07 ± 0.1 | – | 0.818 ± 0.095 | 0.747 ± 0.07 | 1.1 ± 0.11 | 1.18 ± 0.16 | 1.15 ± 0.1 | 1.19 ± 0.099 | 1.09 ± 0.19 | 1.08 ± 0.17 | 0.854 ± 0.13 | 0.731 ± 0.21 |
